Experimental data: article PMC11973506, “In vitro α–Glucosidase Inhibition, Cytotoxicity, SAR, Swiss ADME Prediction and Molecular Docking Study of New N–Substituted Hydantoin Derivatives” (ChemistryOpen, 2025)
Like-named read-outs stand apart in the source and are kept apart here.

Legend:
[1] = target: T1, Saccharomyces cerevisiae α-glucosidase (Saccharomyces cerevisiae, UniProt P53341); assay: In vitro α-glucosidase inhibition assay (p-nitrophenyl glucopyranoside substrate); format: biochemical
T1 construct: purchased
T1 sequence (P53341 whole entry): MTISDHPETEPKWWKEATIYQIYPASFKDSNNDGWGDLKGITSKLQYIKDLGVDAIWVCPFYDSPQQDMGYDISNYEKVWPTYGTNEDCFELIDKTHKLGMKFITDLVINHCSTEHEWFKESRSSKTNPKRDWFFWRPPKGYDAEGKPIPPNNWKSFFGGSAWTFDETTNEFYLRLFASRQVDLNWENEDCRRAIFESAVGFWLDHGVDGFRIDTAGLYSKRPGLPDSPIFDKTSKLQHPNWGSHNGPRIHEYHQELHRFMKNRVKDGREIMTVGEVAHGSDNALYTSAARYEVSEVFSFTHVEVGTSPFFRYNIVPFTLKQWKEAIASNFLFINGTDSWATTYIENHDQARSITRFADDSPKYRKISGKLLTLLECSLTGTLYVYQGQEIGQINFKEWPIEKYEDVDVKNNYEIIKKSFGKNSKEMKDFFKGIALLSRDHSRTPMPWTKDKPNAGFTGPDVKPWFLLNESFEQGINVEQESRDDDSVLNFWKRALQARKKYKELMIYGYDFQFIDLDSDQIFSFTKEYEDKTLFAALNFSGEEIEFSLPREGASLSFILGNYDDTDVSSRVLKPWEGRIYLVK
Method: Using Saccharomyces cerevisiae α‐glucosidase enzymes, hydantoin derivatives 8 a–o were evaluated for them for their in vitro α‐glucosidase activity.
The α‐glucosidase inhibitions of compounds 8 a–o were screened as described in our previous method.[21] Epigallacatechin gallate (EGCG) was used as positive control. The α‐glucosidase enzyme (Saccharomyces Cerevisiae, 50 μg/mL) and substrate (p‐nitrophenyl glucopyranoside) were dissolved in a solution of potassium phosphate buffer (pH 6.3, 3 mM). Final compounds 8 a–o were dissolved in DMSO to give a final concentration of 200 μM. […] All samples (5 μL), enzyme (20 μL), and potassium phosphate buffer (60 μL) were added to the 96‐well plate and incubated at 37 °C for 5 min. Thereafter, the substrate (10 μL, 4 mM) was added to the mixture and incubated at 37 °C for 20 min followed by the addition of sodium carbonate (25 μL). Finally, the absorbance readings were measured by BioTek® PowerWave XS spectrophotometer (Winooski, VT, USA). Since the enzyme and substrate controls […], the percentage of α‐glucosidase inhibition was calculated using follows: (1) %α-glucosidaseinhibition=(A405nmofcontrol-A405nmoftestsample)/A405nmofcontrol×100

Caco2 cell line = conditions: 48 hours of treatment with 100 μM, below 2000 considered toxic
Method: Cytotoxicity screening is one of the important tools used to determine whether a compound is toxic or not. Furthermore, these assays are performed by testing the ability of cells to continue proliferating in the presence of a test compound or substance over a specific period.[23] All hydantoin title compounds 8 a–o were screened for their in vitro cytotoxicity activity using the Caco2 cell line against the untreated (UT) and melphalan as a control. […] Any compound with living cells below […] was considered to be toxic.
The human colorectal adenocarcinoma cell line (CaCO2) used to screen the cytotoxicity of compounds 8 a–o was based on our initially described protocol.[21] […] Samples were sonicated if solubility was a problem and stored at 4 °C until required. Melphalan (100 mM stock) was prepared in DMSO and used as a positive control at a final concentration of 30 μM. The cells (4000 cells/well) were seeded in 96 well plates at 100 μL aliquots and were left for 24 hours to attach. After 24 hours, the 100 μL of the medium was treated with 100 μL aliquots of 200 μM dilution. Cells were maintained in 10 cm culture dishes in 10 mL complete medium (DMEM‐LG+10 % FBS+1× penicillin/streptomycin) and incubated for 48 hours at 37 °C, 5 % CO2, and 100 % relative humidity until needed. After incubation 100 μL staining solution Hoechst (5 μg/mL) and 10 μL PI solution were stained on the plates before they were incubated again for 30 min. Quantification of live and dead cells was performed using the ImageXpress Micro XLS Widefield Microscope (Molecular Devices) using a 10× Plan Fluor objective and DAPI and Texas Red filter cubes. Acquired images were analyzed using the MetaXpress software and Multi‐Wavelength Cell Scoring Application Module. Acquired data was transferred to an Excel spreadsheet and data was analyzed and processed.

[2] = text statement for 50 and 100 μM together

Row | Structure (SMILES) | inhibition at 10 µM ([1]; 10 μM) [%] | inhibition at 50 µM ([1]; 50 μM) [%] | inhibition at 100 µM ([1]; 100 μM) [%] | inhibition at 200 µM ([1]; 200 μM) [%] | Cytotoxicity, live cells (Caco2 cell line) | α-glucosidase inhibition ([1]; 10 μM) | α-glucosidase inhibition ([1]; 200 μM) | α-glucosidase inhibition [1, 2] | Cytotoxicity, live cells (Caco2 cell line; listed as 8a) | α-glucosidase inhibition ([1]; 50 μM) | α-glucosidase inhibition ([1]; 100 μM)
1 | CCCC(NC(=O)CN1C(=O)N/C(=C\c2ccc(C)cc2)C1=O)C(=O)OC (stereo not drawn) [8 h] | 3.45 ± 13.6 | 16.3 ± 15.2 | 25.4 ± 7.88 | 42.8 ± 4.3 |  |  |  |  |  |  | 
2 | CCCC(NC(=O)CN1C(=O)N/C(=C\c2ccc(C)cc2)C1=O)C(=O)OCC (stereo not drawn) [8 k] |  | 14.5 ± 5.42 | 17 ± 8.54 | 41.9 ± 3.31 |  |  |  |  |  |  | 
3 | CCCC(NC(=O)CN1C(=O)N/C(=C\c2ccc3c(c2)OCO3)C1=O)C(=O)OC (stereo not drawn) [8 o] | 11.3 ± 15.2 | 16 ± 17.9 | 37.4 ± 24.9 | 57.8 ± 6.38 |  |  |  |  |  |  | 
4 | CCOC(=O)C(NC(=O)CN1C(=O)N/C(=C\c2ccc3c(c2)OCO3)C1=O)C(C)C (stereo not drawn) [8 n] | 0.73 ± 11.4 | 14 ± 16.4 | 28.3 ± 17.3 | 57.4 ± 2.79 | 2039 ± 740 |  |  |  |  |  | 
5 | O=C(O[C@@H]1Cc2c(O)cc(O)cc2O[C@@H]1c1cc(O)c(O)c(O)c1)c1cc(O)c(O)c(O)c1 [EGCG, Epigallocatechin gallate, reference compound] | 97.03 ± 0.41 | 97.03 ± 0.41 | 97.03 ± 0.41 | 97.03 ± 0.41 |  |  |  |  |  |  | 
6 | COC(=O)C(C)NC(=O)CN1C(=O)N/C(=C\c2ccc(C)cc2)C1=O (stereo not drawn) [8 e] |  | 9.01 ± 16.4 | 9.75 ± 6.4 | 51.4 | 2567 ± 299 | ‐ | 31.35 ± 1.95% |  |  |  | 
7 | COC(=O)C(C)NC(=O)CN1C(=O)N/C(=C\c2ccc(OC)cc2)C1=O (stereo not drawn) [8 a] |  |  |  | 51.6 ± 2.92 | 2605 |  | moderate inhibition | no activity | 2605 ± 293 |  | 
8 | CCOC(=O)C(NC(=O)CN1C(=O)N/C(=C\c2ccc(C)cc2)C1=O)C(C)C (stereo not drawn) [8 j] | 6.49 ± 17.8 | 13.8 ± 9.6 | 19.2 ± 10.2 | 48.5 ± 2.33 | 2565 ± 198 |  |  |  |  |  | 
9 | CCC(NC(=O)CN1C(=O)N/C(=C\c2ccc(C)cc2)C1=O)C(=O)OC (stereo not drawn) [8 f] | 4.92 ± 18 | 8.87 ± 21.3 | 12.2 ± 10.9 |  | 2230 ± 570 |  |  |  |  |  | 
10 | CCOC(=O)C(C)NC(=O)CN1C(=O)N/C(=C\c2ccc(C)cc2)C1=O (stereo not drawn) [8 i] |  |  |  | 44.6 ± 0.99 | 2595 ± 289 | ‐ |  | no activity |  | ‐ | ‐
11 | COC(=O)C(NC(=O)CN1C(=O)N/C(=C\c2ccc(C)cc2)C1=O)C(C)C (stereo not drawn) [8 g] | 1.8 ± 13.8 | 4.13 ± 4.26 | 18 ± 3.95 | 45.2 ± 3.6 |  |  |  |  |  |  | 
12 | COC(=O)C(C)NC(=O)CN1C(=O)N/C(=C\c2ccc3c(c2)OCO3)C1=O (stereo not drawn) [8 l] |  | 7.7 ± 17.8 | 9.6 ± 23 | 57.4 ± 4.05 |  | ‐ |  |  |  |  | 
13 | CCC(NC(=O)CN1C(=O)NC(=Cc2ccc(OC)cc2)C1=O)C(=O)OC (stereo not drawn) [8 b] |  | 0.43 ± 16.8 |  | 39.3 ± 1.01 |  |  |  |  |  |  | 
14 | COC(=O)C(NC(=O)CN1C(=O)N/C(=C\c2ccc(OC)cc2)C1=O)C(C)C (stereo not drawn) [8 c] |  | 3.37 ± 11.5 | 9.51 ± 19.7 | 41 ± 2.62 |  |  |  |  |  |  | 
15 | CCC(NC(=O)CN1C(=O)N/C(=C\c2ccc3c(c2)OCO3)C1=O)C(=O)OC (stereo not drawn) [8 m] |  | 6.94 ± 10.9 | 11.2 ± 11 | 37.6 ± 10 |  | ‐ |  |  |  |  | 
